Source: ChEMBL document CHEMBL6177998, “Rational Design of Dual Degraders by Incorporating Molecular Glue Structural Features into PROTAC Degraders” (J Med Chem, 2025)
Activity calls are given as the source filed them. The rule behind the calls is not given here.

Assays:
[1] = Cmax in male ICR mouse at 2 mg/kg, iv by LC-MS/MS analysis; format: ADME, organism-based; conditions: in vivo
[2] = biological target: T1, Protein cereblon/Androgen receptor (Homo sapiens, UniProt P10275+Q96SW2); test: PROTAC activity at CRBN/AR in human LNCaP cells assessed as induction of AR degradation by measuring maximal efficacy incubated for 24 hrs by Western blot analysis relative to control; format: cell-based
Target sequence in this assay (P10275 whole entry, looked up): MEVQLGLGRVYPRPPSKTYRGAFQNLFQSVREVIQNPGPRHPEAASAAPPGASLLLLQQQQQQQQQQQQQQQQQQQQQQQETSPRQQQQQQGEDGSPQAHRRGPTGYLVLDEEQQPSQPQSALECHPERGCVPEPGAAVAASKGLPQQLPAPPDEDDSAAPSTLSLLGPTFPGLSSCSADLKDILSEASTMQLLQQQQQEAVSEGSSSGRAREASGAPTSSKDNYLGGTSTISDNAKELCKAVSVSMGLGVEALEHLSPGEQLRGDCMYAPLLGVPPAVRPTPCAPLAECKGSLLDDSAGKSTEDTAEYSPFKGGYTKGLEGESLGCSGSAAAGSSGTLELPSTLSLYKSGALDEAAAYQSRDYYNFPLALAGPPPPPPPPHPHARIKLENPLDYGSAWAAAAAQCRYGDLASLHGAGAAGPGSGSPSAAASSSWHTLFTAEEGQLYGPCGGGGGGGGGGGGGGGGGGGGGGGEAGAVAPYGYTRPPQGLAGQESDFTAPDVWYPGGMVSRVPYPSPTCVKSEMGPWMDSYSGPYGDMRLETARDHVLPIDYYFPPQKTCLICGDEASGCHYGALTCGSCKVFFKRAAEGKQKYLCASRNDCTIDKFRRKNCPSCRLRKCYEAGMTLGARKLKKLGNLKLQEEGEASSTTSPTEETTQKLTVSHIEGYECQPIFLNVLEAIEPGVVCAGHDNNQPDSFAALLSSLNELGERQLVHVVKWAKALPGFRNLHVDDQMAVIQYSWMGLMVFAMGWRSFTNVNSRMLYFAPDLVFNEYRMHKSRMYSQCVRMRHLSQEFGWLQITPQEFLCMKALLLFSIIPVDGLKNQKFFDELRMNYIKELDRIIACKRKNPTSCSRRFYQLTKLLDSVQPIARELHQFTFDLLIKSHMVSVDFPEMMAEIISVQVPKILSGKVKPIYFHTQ
Target sequence in this assay (Q96SW2 whole entry, looked up): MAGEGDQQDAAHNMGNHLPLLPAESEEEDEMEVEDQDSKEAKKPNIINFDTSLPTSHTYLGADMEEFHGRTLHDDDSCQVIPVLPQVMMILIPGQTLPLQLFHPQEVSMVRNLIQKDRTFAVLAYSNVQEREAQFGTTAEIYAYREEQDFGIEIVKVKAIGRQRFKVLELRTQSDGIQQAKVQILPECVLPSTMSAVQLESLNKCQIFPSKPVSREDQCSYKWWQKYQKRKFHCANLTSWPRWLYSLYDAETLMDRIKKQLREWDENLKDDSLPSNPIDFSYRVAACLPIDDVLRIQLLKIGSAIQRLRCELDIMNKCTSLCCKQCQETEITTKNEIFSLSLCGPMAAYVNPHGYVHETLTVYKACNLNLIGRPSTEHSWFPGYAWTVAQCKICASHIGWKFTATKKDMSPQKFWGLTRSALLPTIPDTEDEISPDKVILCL

[3] = biological target: T2, Protein cereblon/Eukaryotic peptide chain release factor GTP-binding subunit ERF3A (Homo sapiens, UniProt Q96SW2+P15170); test: Molecular glue activity at CRBN/GSPT1 in human 22Rv1 cells assessed as induction of GSPT1 degradation at 20 nM incubated for 12 hrs by Western blot analysis (reference value: 0 %); format: cell-based
Target sequence in this assay (P15170 whole entry, looked up): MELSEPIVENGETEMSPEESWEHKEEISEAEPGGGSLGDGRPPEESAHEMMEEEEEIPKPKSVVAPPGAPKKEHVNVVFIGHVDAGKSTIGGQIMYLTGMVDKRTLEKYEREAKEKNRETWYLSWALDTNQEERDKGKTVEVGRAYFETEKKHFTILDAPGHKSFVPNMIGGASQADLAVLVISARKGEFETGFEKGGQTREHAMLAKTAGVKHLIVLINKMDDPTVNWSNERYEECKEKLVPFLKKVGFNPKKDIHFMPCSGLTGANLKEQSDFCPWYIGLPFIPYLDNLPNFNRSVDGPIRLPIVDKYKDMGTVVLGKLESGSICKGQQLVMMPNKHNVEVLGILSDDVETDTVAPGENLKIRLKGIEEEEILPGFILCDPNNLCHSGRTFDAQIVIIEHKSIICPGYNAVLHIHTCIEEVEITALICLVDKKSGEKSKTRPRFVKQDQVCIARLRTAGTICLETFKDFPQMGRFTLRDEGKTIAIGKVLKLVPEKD
Target sequence in this assay (Q96SW2 whole entry, looked up): as the sequence (Q96SW2 whole entry, looked up) above

[4] = biological target: T2, Protein cereblon/Eukaryotic peptide chain release factor GTP-binding subunit ERF3A; test: Molecular glue activity at CRBN/GSPT1 in human 22Rv1 cells assessed as induction of GSPT1 degradation at 20 nM incubated for 1 hrs by Western blot analysis (reference value: 0 %); format: cell-based
Target sequence in this assay (P15170 whole entry, looked up): as the sequence (P15170 whole entry, looked up) above
Target sequence in this assay (Q96SW2 whole entry, looked up): as the sequence (Q96SW2 whole entry, looked up) above

CWR22R = test: Effect on androgen receptor splice variant 7 mRNA expression in human 22Rv1 cells at 1 to 10 nM incubated for 24 hrs by RT-PCR analysis; format: functional, cell-based; conditions: dose 1-10 nM
[5] = AUC in male ICR mouse at 10 mg/kg, po by LC-MS/MS analysis; format: ADME, organism-based; conditions: in vivo
[6] = Antiproliferative activity against human Enzalutamide-resistant LNCaP cells assessed as cell growth inhibition incubated for 72 hrs by Celltiter-lumi luminescent cell viability assay; format: functional, cell-based
[7] = biological target: T2, Protein cereblon/Eukaryotic peptide chain release factor GTP-binding subunit ERF3A; test: Molecular glue activity at CRBN/GSPT1 in human VCaP cells assessed as induction of GSPT1 degradation incubated for 24 hrs by Western blot analysis; format: cell-based
[8] = biological target: T2, Protein cereblon/Eukaryotic peptide chain release factor GTP-binding subunit ERF3A; test: Molecular glue activity at CRBN/GSPT1 in human VCaP cells assessed as induction of GSPT1 degradation at 20 nM measured after 6 hrs by Western blot analysis; format: cell-based
Target sequence in this assay (P15170 whole entry, looked up): as the sequence (P15170 whole entry, looked up) above
Target sequence in this assay (Q96SW2 whole entry, looked up): as the sequence (Q96SW2 whole entry, looked up) above

[9] = test system: Protein cereblon/Androgen receptor (Homo sapiens), P10275+Q96SW2 [UNDEFINED MUTATION]; test: (§1) PROTAC activity at CRBN/Androgen receptor splice variant 7 in human VCaP cells assessed as induction of AR-V7 degradation incubated for 24 hrs by Western blot analysis; format: cell-based
Chain of Protein cereblon/Androgen receptor (Homo sapiens), P10275+Q96SW2 [UNDEFINED MUTATION] (P10275 whole entry, looked up, stated change not applied, canonical isoform): as the sequence (P10275 whole entry, looked up) above
Chain of Protein cereblon/Androgen receptor (Homo sapiens), P10275+Q96SW2 [UNDEFINED MUTATION] (Q96SW2 whole entry, looked up, stated change not applied, canonical isoform): as the sequence (Q96SW2 whole entry, looked up) above

[10] = biological target: T1, Protein cereblon/Androgen receptor; test: as §1; format: cell-based
Target sequence in this assay (P10275 whole entry, looked up, change not shown): as the sequence (P10275 whole entry, looked up) above
Target sequence in this assay (Q96SW2 whole entry, looked up, change not shown): as the sequence (Q96SW2 whole entry, looked up) above

[11] = biological target: T1, Protein cereblon/Androgen receptor; test: PROTAC activity at CRBN/AR in human 22Rv1 cells assessed as decrease in TMPRSS2 mRNA level at 1 to 3 nM incubated for 24 hrs by qRT-PCR analysis; format: cell-based; conditions: dose 1-3 nM
Target sequence in this assay (P10275 whole entry, looked up): as the sequence (P10275 whole entry, looked up) above
Target sequence in this assay (Q96SW2 whole entry, looked up): as the sequence (Q96SW2 whole entry, looked up) above

[12] = biological target: T1, Protein cereblon/Androgen receptor; test: PROTAC activity at CRBN/AR in human 22Rv1 cells assessed as induction of AR degradation at 20 nM incubated for 24 hrs by Western blot analysis (reference value: 0 %); format: cell-based
Target sequence in this assay (P10275 whole entry, looked up): as the sequence (P10275 whole entry, looked up) above
Target sequence in this assay (Q96SW2 whole entry, looked up): as the sequence (Q96SW2 whole entry, looked up) above

[13] = Cmax in male ICR mouse at 10 mg/kg, po by LC-MS/MS analysis; format: ADME, organism-based; conditions: in vivo
[14] = test system: Protein cereblon/Androgen receptor (Homo sapiens), P10275+Q96SW2 [UNDEFINED MUTATION]; test: PROTAC activity at CRBN/Androgen receptor splice variant 7 in human Enzalutamide-resistant LNCaP cells assessed as induction of AR-V7 degradation at 1 to 300 nM by Western blot analysis; format: cell-based; conditions: dose 1-300 nM
[15] = biological target: T2, Protein cereblon/Eukaryotic peptide chain release factor GTP-binding subunit ERF3A; test: In vivo molecular glue activity at CRBN/GSPT1 in male NOD SCID mouse model xenografted with human LNCaP cells assessed as reduction in GSPT1 level in tumor at 20 mg/kg, po administered daily for 26 days by Western blot analysis; format: functional, organism-based; conditions: time 26.0 day
Target sequence in this assay (P15170 whole entry, looked up): as the sequence (P15170 whole entry, looked up) above
Target sequence in this assay (Q96SW2 whole entry, looked up): as the sequence (Q96SW2 whole entry, looked up) above

[16] = biological target: T1, Protein cereblon/Androgen receptor; test: PROTAC activity at CRBN/AR in human LNCaP cells assessed as decrease in FKBP51 protein level incubated for 24 hrs by Western blot analysis; format: cell-based; conditions: dose 1-100 nM
Target sequence in this assay (P10275 whole entry, looked up): as the sequence (P10275 whole entry, looked up) above
Target sequence in this assay (Q96SW2 whole entry, looked up): as the sequence (Q96SW2 whole entry, looked up) above

[17] = biological target: Cereblon/Ikaros (Homo sapiens) (UniProt Q96SW2+Q13422); test: Molecular glue activity at CRBN/IKZF1 in human 22Rv1 cells assessed as induction of IKZF1 degradation at 1 uM incubated for 6 hrs by Western blot analysis; format: cell-based
[18] = test system: Protein cereblon/Androgen receptor (Homo sapiens), P10275+Q96SW2 [UNDEFINED MUTATION]; test: PROTAC activity at CRBN/Androgen receptor splice variant 7 in human 22Rv1 cells assessed as induction of AR-V7 degradation at 20 nM incubated for 24 hrs by Western blot analysis (reference value: 0%); format: cell-based
[19] = test system: Protein cereblon/Androgen receptor (Homo sapiens), P10275+Q96SW2 [UNDEFINED MUTATION]; test: PROTAC activity at CRBN/Androgen receptor splice variant 7 in human 22Rv1 cells assessed as induction of AR-V7 degradation at 20 uM preincubated with EPI-002 for 4 hrs followed by compound addition and measured after 36 hrs by Western blot analysis; format: cell-based
[20] = test system: Protein cereblon/Androgen receptor (Homo sapiens), P10275+Q96SW2 [UNDEFINED MUTATION]; test: PROTAC activity at CRBN/Androgen receptor splice variant 7 in human 22Rv1 cells assessed as induction of AR-V7 degradation at […] preincubated with thalidomide followed by compound addition and measured after 12 hrs by Western blot analysis; format: cell-based
[21] = biological target: T1, Protein cereblon/Androgen receptor; test: PROTAC activity at CRBN/AR in human 22Rv1 cells assessed as decrease in FKBP5 mRNA level at 1 to 3 nM incubated for 24 hrs by qRT-PCR analysis; format: cell-based; conditions: dose 1-3 nM
Target sequence in this assay (P10275 whole entry, looked up): as the sequence (P10275 whole entry, looked up) above
Target sequence in this assay (Q96SW2 whole entry, looked up): as the sequence (Q96SW2 whole entry, looked up) above

[22] = Antiproliferative activity against human Enzalutamide-resistant VCaP cells assessed as cell growth inhibition incubated for 72 hrs by Celltiter-lumi luminescent cell viability assay; format: functional, cell-based
[23] = test system: Protein cereblon/Androgen receptor (Homo sapiens), P10275+Q96SW2 [UNDEFINED MUTATION]; test: PROTAC activity at CRBN/Androgen receptor splice variant 7 in human 22Rv1 cells assessed as induction of AR-V7 degradation at 20 nM incubated for 1 hrs by Western blot analysis (reference value: 0%); format: cell-based
[24] = biological target: T1, Protein cereblon/Androgen receptor; test: PROTAC activity at CRBN/AR in human Enzalutamide-resistant VCaP cells assessed as induction of androgen receptor degradation at 1 to 300 nM by Western blot analysis; format: cell-based; conditions: dose 1-300 nM
Target sequence in this assay (P10275 whole entry, looked up): as the sequence (P10275 whole entry, looked up) above
Target sequence in this assay (Q96SW2 whole entry, looked up): as the sequence (Q96SW2 whole entry, looked up) above

LNCaP = test: Induction of apoptosis in human LNCaP cells assessed as increase in cleaved caspase-3 expression incubated for 24 hrs by Western blot analysis; format: functional, cell-based; conditions: dose 1-100 nM
[25] = biological target: T2, Protein cereblon/Eukaryotic peptide chain release factor GTP-binding subunit ERF3A; test: Binding affinity to CRBN/GSPT1 in human 22Rv1 cells assessed as ternary complex formation incubated for 6 hrs by co-immunoprecipitation based Western blot analysis; format: cell-based
Target sequence in this assay (P15170 whole entry, looked up): as the sequence (P15170 whole entry, looked up) above
Target sequence in this assay (Q96SW2 whole entry, looked up): as the sequence (Q96SW2 whole entry, looked up) above

[26] = biological target: T1, Protein cereblon/Androgen receptor; test: PROTAC activity at CRBN/AR in human VCaP cells assessed as induction of AR degradation at 50 nM preincubated with MLN4924 followed by compound addition and measured after 12 hrs by Western blot analysis; format: cell-based
[27] = biological target: T1, Protein cereblon/Androgen receptor; test: PROTAC activity at CRBN/AR in human VCaP cells assessed as induction of AR degradation at 0.1 uM incubated for 24 hrs by Western blot analysis relative to control; format: cell-based
[28] = biological target: T1, Protein cereblon/Androgen receptor; test: PROTAC activity at CRBN/AR in human 22Rv1 cells assessed as decrease in TMPRSS2 protein level incubated for 24 hrs by Western blot analysis; format: cell-based; conditions: dose 1-10 nM
[29] = test system: Protein cereblon/Androgen receptor (Homo sapiens), P10275+Q96SW2 [UNDEFINED MUTATION]; test: PROTAC activity at CRBN/Androgen receptor splice variant 7 in human 22Rv1 cells assessed as induction of AR-V7 degradation at 20 nM incubated for 12 hrs by Western blot analysis (reference value: 0%); format: cell-based
[30] = biological target: T1, Protein cereblon/Androgen receptor; test: PROTAC activity at CRBN/AR in human 22Rv1 cells assessed as induction of AR degradation at 20 nM incubated for 36 hrs by Western blot analysis (reference value: 0 %); format: cell-based
[31] = Clearance in male ICR mouse at 2 mg/kg, iv by LC-MS/MS analysis; format: ADME, organism-based; conditions: in vivo

In the case of COc1ccc(C(C)(C)c2cc(Cl)c(OCC3CCN(C(=O)CCCCCNc4ccc5c(c4)C(=O)N(C4CCC(=O)NC4=O)C5=O)CC3)c(C#N)c2)cc1 (centres undefined), the Cmax [1] is reported as 1120 ng/mL, the Emax [2] is reported as 78.7% and the Activity [3] is reported as 98.7%. The Activity [4] was 21.8%, the Activity (CWR22R) was “Minimal_effect” and the AUC [5] was 1040 ng·h/mL. The IC50 [6] was 25.1 nM, the Activity [7] was “Dose-dependent-effect” and the DC50 [7] was 0.6 nM. For the same compound, the Activity [8] was “Active”, the Activity [9] was “Dose-dependent-effect” and the DC50 [10] was 2.5 nM. For the same compound, the Activity [11] was “Active”, the Activity [12] was 94.1% and the Cmax [13] was 206 ng/mL. For the same compound, the Activity [14] was “Active”, the Activity [15] was “Active” and the Activity [16] was “Dose-dependent-effect”. For the same compound, the Activity [17] was “inactive”, the Activity [18] was 95.5% and the Activity [19] was “inactive”. The Activity [20] was “inactive”, the Activity [21] was “Active” and the IC50 [22] was 6.99 nM. The Activity [23] was 13.3%, the Activity [24] was “Active” and the Activity (LNCaP) was “Dose-dependent-effect”. The Activity [25] was “Active”, the Activity [26] was “inactive” and the Activity [27] was 92.2%. For the same compound, the Activity [28] was “Dose-dependent-effect”, the Activity [29] was 56.6% and the Activity [30] was 92.1%. For the same compound, the clearance [31] was 18 mL/min/kg.
